Test results: patent US20220341825A1, “CELL-COMPATIBLE TISSUE CLARIFYING COMPOSITION” (OSAKA UNIVERSITY, priority 2019, published 2022)
Marks after values point to notes of the source that are not given here.

Key:
human skin fibroblasts = assay: Cell survival rate after transparentization treatment (trypan blue); type: cell-based
Procedure: The cell survival rates in the transparentization using AMP, ADP, ATP, CMP, TMP, fructose, glucose, trehalose, sucrose, antipyrine, RapiClear 1.52, and poly A were examined. 1.0×10^5 human skin fibroblasts were seeded in a 24-well plate and cultured in DMEM medium. The next day, after washing with PBS, 100 μL of 100 wt % AMP aqueous solution, 100 wt % ADP aqueous solution, 100 wt % ATP aqueous solution, 100 wt % CMP aqueous solution, 100 wt % TMP aqueous solution, 100 wt % fructose aqueous solution, 100 wt % glucose aqueous solution, 100 wt % trehalose aqueous solution, 100 wt % sucrose aqueous solution, 100 wt % antipyrine aqueous solution, RapiClear 1.52 aqueous solution, or 25 wt % poly A aqueous solution was added, and the resultant was incubated at 37° C. for 30 minutes. Distilled water was added for a control. After the incubation, 0.1% trypsin was directly added, and the resultant was incubated for 5 minutes. Cell dissociation was confirmed, 3 mL of DMEM medium was added, and then the resultant was collected into a 15-mL centrifuge tube, and centrifuged (1000 rpm, 5 minutes, 20° C.). The supernatant was aspirated and 100 μL of DMEM medium was added. 10 μL was separated from the resultant and placed in an Eppendorf tube, and 10 μL of trypan blue solution was added thereto. Then, 10 μL was separated and the number of cells was counted with an automated cell counter.

[1] = test system: living three-dimensional tissue model; assay: Cell survival rate in living three-dimensional tissue model (trypan blue); type: cell-based, human
Procedure: (§1) A transparentization was performed on a living three-dimensional tissue model. 60 wt % AMP was used as a transparentizing agent, and RapiClear 1.52 and 61 wt % fructose were used for comparison. The experimental procedure was the same as that of Example 4, except that the paraformaldehyde fixation described in step (6) was not performed.
Further after 30, 60, and 90 minutes of the transparentization treatment in the same experimental system as described above, the tissue was disintegrated with proteinase K and collagenase (1:1) and subjected to trypan blue staining to count the number of viable cells. […] The transparentization treatment with AMP had no significant effect on the cell survival rate (a cell survival rate of 92%). […] The cell survival rate was as high as 92% and 90% after the 30-minute and 60-minute transparentization treatments, respectively. It was confirmed that a significant number of cells survived even after the 90-minute transparentization treatment (a cell survival rate of 45%).

[2] = test system: collagen solution (sCMF, sonicated collagen microfiber); assay: Transparentizing ability in collagen model system (transmittance at 600 nm); settings: for transmittance: room temperature, 2 hours; for transparentizing ability: screening in collagen (sCMF) solution
Procedure: Since collagen is most abundant in biological tissue, a collagen solution was used as a model of the biological tissue to screen various compounds for their transparentizing ability. The outline of the screening experiment is as follows. Aqueous solutions of test compounds were added to multi-well plates containing aqueous solutions of sCMF (sonicated collagen microfiber) and allowed to stand at room temperature for a certain period of time, and subsequently, apparent transparency and transmittance at 600 nm were measured. 100 μL of 100 wt % AMP aqueous solution (refractive index: 1.43), 100 wt % CMP aqueous solution (refractive index: 1.42), 100 wt % TMP aqueous solution (refractive index: 1.41) or 25 wt % poly A aqueous solution (refractive index: 1.37) were added. The molecular weight of poly A was 100 to 500 kDa. Distilled water was added for a control. The resultant was allowed to stand at room temperature for 2 hours, and then the absorbance at 600 nm was measured with a plate reader (Synergy HTX). The obtained absorbance was substituted into an equation according to the Lambert-Beer formula to calculate the transmittance. 100 μL of 0.1 wt %, 0.5 wt %, 1 wt %, and 5 wt % sCMF aqueous solutions were placed in a 96-well plate, and 100 μL of 10 wt % (refractive index: 1.35), 25 wt % (refractive index: 1.38), 50 wt % (refractive index: 1.39), and 100 wt % (refractive index: 1.43) AMP aqueous solutions were added. After allowing the obtained samples to stand at room temperature for 2 hours, an absorbance at 600 nm was measured with a plate reader (Synergy HTX). The obtained absorbance was substituted into an equation according to the Lambert-Beer formula to calculate the transmittance.

[3] = Refractive index of aqueous solutions; type: physicochemical
[4] = test system: living three-dimensional tissue model; assay: Transparentization test (2) on living three-dimensional tissue model, confocal observation; type: cell-based, human; settings: 60 wt % AMP, 30 minutes
Procedure: as §1
The upper part of FIG. 5 is images immediately before the treatment (0 minutes), in which the left panel is an image observed in a direction perpendicular to the dish, and the right panel is an image observed in a direction horizontal to the dish. The lower part of FIG. 5 is images immediately after the treatment (30 minutes), in which the left panel is an image observed in a direction perpendicular to the dish, and the right panel is an image observed in a direction horizontal to the dish. By the transparentization treatment with AMP, the central portion of the tissue was seen so that the deep part up to 200 μm could be observed.

[5] = test system: three-dimensional tissue model (human skin fibroblasts, human umbilical vein endothelial cells); assay: Transparentization test (1) on fixed three-dimensional tissue model; type: cell-based; settings: 100 wt % AMP, 37° C., 30 minutes; paraformaldehyde-fixed tissue
Procedure: (1) A solution containing fibrinogen at a concentration of 2 mg/100 μL, CMF at a concentration of 6 mg/100 μL, and thrombin at a concentration of 1 unit/100 μL using DMEM was prepared.
(2) 1.0×10^5 of human skin fibroblasts, 5.0×10^4 of human umbilical vein endothelial cells, 18 μL of a mixed medium of DMEM and EGM-2, and 2 μL of a thrombin solution were placed in an Eppendorf tube to prepare a cell suspension.
(3) The fibrinogen solution prepared in (1) was combined with a CMF solution, and 40 μL from 200 μL in total of the resulting solution was taken out and added to the cell suspension prepared in (2).
(4) The cell suspension prepared in (3) was placed in a glass bottom dish to prepare a 30-μL drop.
(5) After the drop was incubated for 2 hours, 2 mL of a mixed medium of DMEM and EGM-2 was added.
(6) The drop was cultured at 37° C. for 1 week, washed with PBS, and then fixed with paraformaldehyde for 15 minutes.
(7) The fixed tissue was subjected to CD31 immunostaining and DAPI staining.
(8) A transparentization treatment was performed with 100 wt % AMP at 37° C. for 30 minutes.

[6] = human skin fibroblasts, 100 wt % aqueous solutions (RapiClear 1.52 aqueous solution), 37° C., 30 minutes, n = 3
[7] = 600 nm, 100 wt % aqueous solution added to sCMF solution

Row | refractive index ([3]; 100 wt % aqueous solution) | Molecule | Survival rate (%) (human skin fibroblasts; [6]) | transmittance [2, 7] | transparentizing ability [2] | Survival rate (%) (human skin fibroblasts; human, 30 min, 100 wt %) | also measured
1 |  | O=C(CO)[C@@H](O)[C@H](O)[C@H](O)CO [Fructose, fructose, reference compound] | 6% |  |  |  | cell survival rate ([1]; 30 minutes of treatment, 60 wt % AMP, RapiClear 1.52, 61 wt % fructose): 22%
2 | 1.41 | Cc1cn([C@@H]2O[C@H](COP(=O)(O)O)[C@@H](O)[C@H]2O)c(=O)[nH]c1=O [TMP, 5-methyluridine monophosphate] |  | 31.6% | high transparentizing ability | 42% | 
3 |  | Cc1cc(=O)n(-c2ccccc2)n1C [Antipyrine, antipyrine, reference compound] | 33% |  |  |  | 
4 |  | OC[C@H]1O[C@@](CO)(O[C@H]2O[C@H](CO)[C@@H](O)[C@H](O)[C@H]2O)[C@@H](O)[C@@H]1O [Sucrose, sucrose, reference compound] |  |  |  | 14% | 
5 |  | Nc1ncnc2c1ncn2[C@@H]1O[C@H](COP(=O)(O)OP(=O)(O)OP(=O)(O)O)[C@@H](O)[C@H]1O [ATP, adenosine triphosphate] | 26% |  | high transparentizing ability |  | cell survival rate (in words) (human skin fibroblasts; ATP transparentization treatment): low
6 | 1.43 | Nc1ncnc2c1ncn2[C@@H]1O[C@H](COP(=O)(O)O)[C@@H](O)[C@H]1O [AMP, adenosine monophosphate] |  | 75.6% | high transparentizing ability | 92* % | effect of AMP concentration on transmittance ([2]; 10-100 wt % AMP, 0.1-5 wt % sCMF, 600 nm, 2 hours room temperature): as the AMP concentration was higher, the transmittance was higher; refractive index ([3]; 10 wt % aqueous solution): 1.35; refractive index ([3]; 25 wt % aqueous solution): 1.38; refractive index ([3]; 50 wt % aqueous solution): 1.39; observable depth of tissue [4]: up to 200 μm; cell survival rate ([1]; human, 30 min): 92%; cell survival rate ([1]; human, 60 min, 60 wt %): 90%; cell survival rate ([1]; human, 90 min, 60 wt %): 45%; transparentization of tissue (naked eye) [5]: completely transparentized
7 |  | poly A |  |  | high transparentizing ability |  | transmittance ([2]; 600 nm, 25 wt % aqueous solution added to sCMF solution): 69.0%; refractive index ([3]; 25 wt % aqueous solution): 1.37; effect on the survival rate (in words) (human skin fibroblasts): little effect on the survival rate
8 | 1.42 | Nc1ccn([C@@H]2O[C@H](COP(=O)(O)O)[C@@H](O)[C@H]2O)c(=O)n1 [CMP, cytidine monophosphate] |  | 45.2% | high transparentizing ability | 53% | 
9 |  | Nc1ncnc2c1ncn2[C@@H]1O[C@H](COP(=O)(O)OP(=O)(O)O)[C@@H](O)[C@H]1O [ADP, adenosine diphosphate] |  |  | high transparentizing ability | 87* % | 
10 |  | OC[C@H]1O[C@H](O[C@H]2O[C@H](CO)[C@@H](O)[C@H](O)[C@H]2O)[C@H](O)[C@@H](O)[C@@H]1O [Trehalose, trehalose, reference compound] |  |  |  | 25% | 
